Results taken from patent US11696913B2, “Prolonged ectoparasite-controlling agent for animal” (MITSUI CHEMICALS AGRO, INC., priority 2017, dated 2023).

What was measured:
Ctenocephalides felis [1] = test: In vitro contact test with fleas; settings: read-out: insecticidal activity; for pest or weed control at 0.2 µg/cm2, 0.2 µg/cm2: dose 0.2 μg/cm^2, dead or moribund fleas after 48 h; for pest or weed control at 1 µg/cm2, 1 µg/cm2: dose 1 μg/cm^2, dead or moribund fleas after 48 h; for pest or weed control at 0.04 µg/cm2, 0.04 µg/cm2: dose 0.04 μg/cm^2, dead or moribund fleas after 48 h
Outline: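 Activity is the percentage of fleas dead or moribund at 48 h, judged by immobility or uncoordinated movement after tapping. Tubes were coated by evaporating acetone solutions (900 ppm gives 5 μg/cm^2), then held 5-10 adult fleas of both sexes at room temperature and ambient humidity.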

Amblyomma americanum = test: In vitro contact test with hard ticks (Amblyomma americanum nymphs); settings: read-out: acaricidal activity; for pest or weed control at 0.2 µg/cm2, 0.2 µg/cm2: dose 0.2 μg/cm^2, 48 h; for pest or weed control at 1 µg/cm2, 1 µg/cm2: dose 1 μg/cm^2, 48 h; for pest or weed control at 0.04 µg/cm2, 0.04 µg/cm2: dose 0.04 μg/cm^2, 48 h
Outline: (§1)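 Acaricidal activity = % ticks dead or moribund after 48 h contact with acetone-deposited compound on vial walls (e.g., 900 ppm solution → 5 μg/cm^2). Ambient conditions for R. sanguineus, 21° C./85% rel. hum. for other species; heat challenge at 45-50° C. separated climbers from moribund ticks.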

Dermacentor variabilis = test: In vitro contact test with adult hard ticks (Dermacentor variabilis); settings: read-out: acaricidal activity; for pest or weed control at 1 µg/cm2, 1 µg/cm2: dose 1 μg/cm^2, 48 h; for pest or weed control at 0.2 µg/cm2, 0.2 µg/cm2: dose 0.2 μg/cm^2, 48 h
Outline: as §1

Ixodes ricinus = test: In vitro contact test with adult hard ticks (Ixodes ricinus); settings: read-out: acaricidal activity; for pest or weed control at 5 µg/cm2, 5 µg/cm2: dose 5 μg/cm^2, 48 h; for pest or weed control at 1 µg/cm2, 1 µg/cm2: dose 1 μg/cm^2, 48 h
Outline: as §1

Rhipicephalus sanguineus = test: In vitro contact test with adult hard ticks (Rhipicephalus sanguineus); settings: read-out: acaricidal activity; for pest or weed control at 0.2 µg/cm2, 0.2 µg/cm2: dose 0.2 μg/cm^2, 48 h; for pest or weed control at 1 µg/cm2, 1 µg/cm2: dose 1 μg/cm^2, 48 h
Outline: as §1

[2] = tested on: Rhipicephalus (Boophilus) microplus; test: In vitro injection test with Rhipicephalus (Boophilus) microplus (BOOPMI Inj); settings: 168 h, laid fertile eggs after 7 days, read-out: acaricidal activity; for pest or weed control at 32 ng: dose 0.032 μg/animal injected; for pest or weed control at 0.00016 mg: dose 0.16 μg/animal injected; for pest or weed control at 0.0008 mg: dose 0.8 μg/animal injected
Outline: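 Five engorged adult females each get a 1 μl abdominal injection of compound dissolved and diluted in DMSO. Kept 7 days at 28° C./85% rel. hum.; percent activity rates egg laying and egg fertility (0% all fertile, 100% none laid or infertile).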

Ctenocephalides felis [3] = test: Ctenocephalides felis in-vitro feeding test with fleas (CTECFE oral); settings: 48 hours, read-out: insecticidal feeding activity; for pest or weed control at 0.032 ppm: dose 0.032 ppm in citrated cattle blood; for pest or weed control at 0.16 ppm: dose 0.16 ppm in citrated cattle blood; for pest or weed control at 0.8 ppm: dose 0.8 ppm in citrated cattle blood; for pest or weed control at 4 ppm: dose 4 ppm in citrated cattle blood
Outline: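 Scored as percent fleas killed (0–100%) 48 hours after feeding began. Compound, dissolved in DMSO and diluted into citrated cattle blood, was offered via a parafilm membrane to roughly 20 adult male and female C. felis at about 37° C.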

Spodoptera litura = test: Insecticidal testing against common cutworm; assay type: in vivo; settings: foliar, 144 h, concentration 100 ppm, cabbage leaf dip, second-stage larvae, after 6 days, read-out: pesticidal rate
Description: Insecticidal Testing Against Common Cutworm (Spodoptera litura)

Plutella xylostella = test: Insecticidal testing against diamondback moth; assay type: in vivo; settings: foliar, 144 h, concentration 100 ppm, cabbage leaf dip, third-stage larvae, after 6 days, read-out: pesticidal rate
Description: Insecticidal Testing Against Diamondback Moth (Plutella xylostella)

Laodelphax striatellus = test: Insecticidal testing against small brown planthopper; assay type: in vivo; settings: 144 h, concentration 100 ppm, sprayed rice seedlings, after 6 days, read-out: pesticidal rate
Outline: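 Acetone solution of compound at a set concentration sprayed onto rice seedlings, air-dried, then exposed to 10 planthoppers (one group). Held at 25° C; survival rate recorded after 6 days.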

Row | Structure (SMILES) | pest or weed control at 0.2 µg/cm2, 0.2 µg/cm2 (Ctenocephalides felis [1]) [%] | pest or weed control at 1 µg/cm2, 1 µg/cm2 (Ctenocephalides felis [1]) [%] | pest or weed control at 0.2 µg/cm2, 0.2 µg/cm2 (Amblyomma americanum) [%] | pest or weed control at 1 µg/cm2, 1 µg/cm2 (Amblyomma americanum) [%] | pest or weed control at 1 µg/cm2, 1 µg/cm2 (Dermacentor variabilis) [%] | pest or weed control at 5 µg/cm2, 5 µg/cm2 (Ixodes ricinus) [%] | pest or weed control at 0.2 µg/cm2, 0.2 µg/cm2 (Rhipicephalus sanguineus) [%] | pest or weed control at 1 µg/cm2, 1 µg/cm2 (Rhipicephalus sanguineus) [%] | pest or weed control at 32 ng [2] [%] | pest or weed control at 0.00016 mg [2] [%] | pest or weed control at 0.0008 mg [2] [%] | pest or weed control at 0.032 ppm (Ctenocephalides felis [3]) [%] | pest or weed control at 0.16 ppm (Ctenocephalides felis [3]) [%] | pest or weed control at 0.8 ppm (Ctenocephalides felis [3]) [%] | pest or weed control at 4 ppm (Ctenocephalides felis [3]) [%] | pest or weed control at 100 ppm (Spodoptera litura) [%] | pest or weed control at 100 ppm (Plutella xylostella) [%] | pest or weed control at 100 ppm (Laodelphax striatellus) [%] | pest or weed control at 0.04 µg/cm2, 0.04 µg/cm2 (Ctenocephalides felis [1]) [%] | pest or weed control at 0.04 µg/cm2, 0.04 µg/cm2 (Amblyomma americanum) [%] | further results
1 | O=C(Nc1cccc(C(=O)Nc2c(I)cc(C(F)(C(F)(F)F)C(F)(F)C(F)(F)F)cc2C(F)(F)F)c1F)c1ccc(C(F)(F)F)nc1 (centres unmarked) [Compound 102] | 95 | 95 | 90 | 90 | 90 | 90 | 90 | 90 | 100 | 100 | 100 | 95 | 95 | 95 | 95 | ≥ 70 | ≥ 70 | ≥ 70 |  |  | 
2 | CN(C(=O)c1ccc(F)cc1)c1cccc(C(=O)Nc2c(Br)cc(C(F)(C(F)(F)F)C(F)(F)C(F)(F)F)cc2OC(F)F)c1F (centres unmarked) [Compound 105] | 95 | 95 |  | 90 | 90 | 90 |  | 90 | 100 | 100 | 100 | 95 | 95 | 95 | 95 | ≥ 70 | ≥ 70 | ≥ 70 | 95 | 90 | pest or weed control at 0.2 µg/cm2, 0.2 µg/cm2 (Dermacentor variabilis): 90%; pest or weed control at 1 µg/cm2, 1 µg/cm2 (Ixodes ricinus): 90%
3 | O=C(Nc1cccc(C(=O)Nc2c(Br)cc(C(F)(C(F)(F)F)C(F)(F)C(F)(F)F)cc2OC(F)F)c1F)c1ccc(F)cc1 (centres unmarked) [Compound 106] | 95 | 95 | 90 | 90 | 90 | 90 | 90 | 90 | 100 | 100 | 100 | 95 | 95 | 95 | 95 | ≥ 70 | ≥ 70 | ≥ 70 | 95 | 90 | pest or weed control at 0.04 µg/cm2, 0.04 µg/cm2 (Dermacentor variabilis; dose 0.04 μg/cm^2, 48 h): 90%; pest or weed control at 0.2 µg/cm2, 0.2 µg/cm2 (Dermacentor variabilis): 90%; pest or weed control at 0.2 µg/cm2, 0.2 µg/cm2 (Ixodes ricinus; dose 0.2 μg/cm^2, 48 h): 90%; pest or weed control at 1 µg/cm2, 1 µg/cm2 (Ixodes ricinus): 90%; pest or weed control at 0.04 µg/cm2, 0.04 µg/cm2 (Rhipicephalus sanguineus; dose 0.04 μg/cm^2, 48 h): 90%; pest or weed control at 6.4 ng ([2]; dose 0.0064 μg/animal injected): 100%; pest or weed control at 0.0064 ppm (Ctenocephalides felis [3]; dose 0.0064 ppm in citrated cattle blood): 95%
